The results in this text go back to paper PMC10962654 (Journal of Food and Drug Analysis, 2023).

For orientation: AUC(0-t) means exposure summed from dosing to a finite time, without extrapolation to infinity. The low end stands for less exposure, the high end for more exposure.

Counter-ions that a name gives are not always drawn. Like-named read-outs stand apart in the source and are kept apart here.

The test system of series [1] is CK-MB. Description: Plasma CK-MB. The note with it: MI/R rats, Sigmoid-Emax model. The class given is in vivo, Sprague Dawley rats.
Series [2] has as its system IMA. Nature of the series: Plasma IMA. The class given is in vivo, Sprague Dawley rats. The note with it: MI/R rats, Sigmoid-Emax model.
Series [3] has as its system cTn I. Nature of the series: Plasma cTn I. The class given is in vivo, Sprague Dawley rats. Conditions: MI/R rats, Sigmoid-Emax model.
Series [4] deals with α-HBDH. Description: Plasma α-HBDH. The class given is in vivo, Sprague Dawley rats. The note with it: MI/R rats, Sigmoid-Emax model.
For series [5] the following is noted: MI/R rats, plasma, n = 6.
For series [6], the system named is CK-MB, IMA, cTn I, and α-HBDH. Description: Cardioprotection in MI/R rats judged on the four myocardial injury biomarkers. It is filed as in vivo, Sprague Dawley rats. The note with it: plasma, ELISA, i.v. (An ELISA detects its analyte on a solid surface through an enzyme-linked reagent.)

`CC(=O)N[C@@H](CCC(N)=O)C(=O)O` [N-acetyl-L-glutamine]: the “Emax (maximal effect) of optimal PK/PD equation, ΔCK-MB” value (“Emax (maximal effect) … ΔCK-MB” for short) in series [1] (GHI-L ([…], i.v.)) was 11.04; in series [1] (GHI-M (5 mL/kg, i.v.)) it was 13.089. Further, the “Emax (maximal effect) of optimal PK/PD equation, ΔIMA” value (shortened to “Emax (maximal effect) … ΔIMA”) stood at 77.916 in series [2] (GHI-H (10 mL/kg, i.v.)); 31.136 in series [2] (GHI-L ([…], i.v.)); 42.733 in series [2] (GHI-M (5 mL/kg, i.v.)). Further, the “Emax (maximal effect) of optimal PK/PD equation, ΔcTn I” value (from here on “Emax (maximal effect) … ΔcTn I”) in series [3] (GHI-H (10 mL/kg, i.v.)) stood at 10.158; in series [3] (GHI-L ([…], i.v.)), 4.608; in series [3] (GHI-M (5 mL/kg, i.v.)) it was 6.714. Besides, the “Emax (maximal effect) of optimal PK/PD equation, Δα-HBDH” value (shortened to “Emax (maximal effect) … Δα-HBDH”) came to 91.925 in series [4] (GHI-H (10 mL/kg, i.v.)); 48.85 in series [4] (GHI-L ([…], i.v.)); 72.312 in series [4] (GHI-M (5 mL/kg, i.v.)). Besides, the “AUC(0-t)” value in series [5] (GHI-H (GHI 10 mL/kg, i.v.)) worked out at 1048.88 ± 551.764 ng·h/mL; in series [5] (GHI-L (GHI […], i.v.)), 538.219 ± 290.308 ng·h/mL; in series [5] (GHI-M (GHI 5 mL/kg, i.v.)), 1012.749 ± 472.353 ng·h/mL. Moreover, the “AUC(0-∞)” value in series [5] (GHI-H (GHI 10 mL/kg, i.v.)) came to 1079.308 ± 551.248 ng·h/mL; in series [5] (GHI-L (GHI […], i.v.)), 553.382 ± 290.017 ng·h/mL; in series [5] (GHI-M (GHI 5 mL/kg, i.v.)), 1060.065 ± 473.211 ng·h/mL. Further, the t1/2β in series [5] (GHI-H (GHI 10 mL/kg, i.v.)) turned out to be 42.5 ± 4.98 min; in series [5] (GHI-L (GHI […], i.v.)), 48.8 ± 4.68 min; in series [5] (GHI-M (GHI 5 mL/kg, i.v.)), 27.7 ± 1.38 min.
As for `COc1ccc(CCN(C)CCCC(C#N)(c2ccc(OC)c(OC)c2)C(C)C)cc1OC` (centres unmarked) [verapamil hydrochloride, Verapamil hydrochloride], the “elevated level of the four biomarkers induced by MI/R” value in series [6] is listed as “declined to different degrees”.
For the compound hydroxysafflor yellow A, the “Emax (maximal effect) … ΔCK-MB” value in series [1] (GHI-L ([…], i.v.)) was determined as 11.082; in series [1] (GHI-M (5 mL/kg, i.v.)), 27.2. Further, the “Emax (maximal effect) … ΔIMA” value was 31.473 in series [2] (GHI-L ([…], i.v.)) and 49.851 in series [2] (GHI-M (5 mL/kg, i.v.)). The “Emax (maximal effect) … ΔcTn I” value turned out to be 4.628 in series [3] (GHI-L ([…], i.v.)) and 7.341 in series [3] (GHI-M (5 mL/kg, i.v.)). Further, the “Emax (maximal effect) … Δα-HBDH” value amounted to 49.45 in series [4] (GHI-L ([…], i.v.)) and 88.223 in series [4] (GHI-M (5 mL/kg, i.v.)).
Take `O=C(O)/C=C/c1ccc(O)cc1` [p-Coumaric acid, p-coumaric acid]: the “Emax (maximal effect) … ΔCK-MB” value was found to be 15.798 in series [1] (GHI-H (10 mL/kg, i.v.)); 6.058 in series [1] (GHI-L ([…], i.v.)); 15.943 in series [1] (GHI-M (5 mL/kg, i.v.)). Further, the “Emax (maximal effect) … ΔIMA” value worked out at 62.712 in series [2] (GHI-H (10 mL/kg, i.v.)); 19.558 in series [2] (GHI-L ([…], i.v.)); 49.851 in series [2] (GHI-M (5 mL/kg, i.v.)). Also, the “Emax (maximal effect) … ΔcTn I” value in series [3] (GHI-H (10 mL/kg, i.v.)) was 9.007; in series [3] (GHI-L ([…], i.v.)), 2.907; in series [3] (GHI-M (5 mL/kg, i.v.)) it was 7.258. Moreover, the “Emax (maximal effect) … Δα-HBDH” value in series [4] (GHI-H (10 mL/kg, i.v.)) was 89.907; in series [4] (GHI-L ([…], i.v.)), 37.993; in series [4] (GHI-M (5 mL/kg, i.v.)), 71.86. Further, the CL1 was 57.82 ± 3.12 mL/min/kg in series [5] (GHI-H (GHI 10 mL/kg, i.v.)); 55.28 ± 6.15 mL/min/kg in series [5] (GHI-L (GHI […], i.v.)); 46.8 ± 2.23 mL/min/kg in series [5] (GHI-M (GHI 5 mL/kg, i.v.)). Also, the CL2 in series [5] (GHI-H (GHI 10 mL/kg, i.v.)) turned out to be 111 ± 36.42 mL/min/kg; in series [5] (GHI-L (GHI […], i.v.)) it was 98.48 ± 21.73 mL/min/kg; in series [5] (GHI-M (GHI 5 mL/kg, i.v.)), 115.3 ± 41 mL/min/kg. For the same compound, the K10 in series [5] (GHI-H (GHI 10 mL/kg, i.v.)) amounted to 4.878 ± 0.808 h⁻¹; in series [5] (GHI-L (GHI […], i.v.)), 8.039 ± 2.934 h⁻¹; in series [5] (GHI-M (GHI 5 mL/kg, i.v.)) it was 4.277 ± 0.897 h⁻¹. Moreover, the K12 was 9.545 ± 4.156 h⁻¹ in series [5] (GHI-H (GHI 10 mL/kg, i.v.)); 14.117 ± 4.736 h⁻¹ in series [5] (GHI-L (GHI […], i.v.)); 11.023 ± 5.384 h⁻¹ in series [5] (GHI-M (GHI 5 mL/kg, i.v.)). Also, the K21 in series [5] (GHI-H (GHI 10 mL/kg, i.v.)) is 10.071 ± 3.659 h⁻¹; in series [5] (GHI-L (GHI […], i.v.)) it was 4.662 ± 1.024 h⁻¹; in series [5] (GHI-M (GHI 5 mL/kg, i.v.)) it was 10.302 ± 3.876 h⁻¹. Moreover, the Q was 110.9 ± 36.38 mL/min/kg in series [5] (GHI-H (GHI 10 mL/kg, i.v.)); 98.48 ± 21.67 mL/min/kg in series [5] (GHI-L (GHI […], i.v.)); 115.3 ± 41.02 mL/min/kg in series [5] (GHI-M (GHI 5 mL/kg, i.v.)). Further, the V1 is reported as 0.723 ± 0.095 L/kg in series [5] (GHI-H (GHI 10 mL/kg, i.v.)); 0.462 ± 0.17 L/kg in series [5] (GHI-L (GHI […], i.v.)); 0.677 ± 0.122 L/kg in series [5] (GHI-M (GHI 5 mL/kg, i.v.)). The V2 in series [5] (GHI-H (GHI 10 mL/kg, i.v.)) turned out to be 0.669 ± 0.07 L/kg; in series [5] (GHI-L (GHI […], i.v.)), 1.272 ± 0.124 L/kg; in series [5] (GHI-M (GHI 5 mL/kg, i.v.)), 0.7 ± 0.142 L/kg. The t1/2α was 2.04 ± 0.6 min in series [5] (GHI-H (GHI 10 mL/kg, i.v.)); 1.8 ± 0.54 min in series [5] (GHI-L (GHI […], i.v.)); 2.22 ± 1.5 min in series [5] (GHI-M (GHI 5 mL/kg, i.v.)).
Turning to kaempferol-3-O-rutinoside, the “Emax (maximal effect) … ΔCK-MB” value in series [1] (GHI-L ([…], i.v.)) came to 11.04.
Take `O=C(/C=C/c1ccc(O)c(O)c1)O[C@@H]1C[C@](O)(C(=O)O)C[C@@H](O)[C@H]1O` [Chlorogenic acid, chlorogenic acid]: the “Emax (maximal effect) … ΔIMA” value in series [2] (GHI-L ([…], i.v.)) is 28.211. Further, the “Emax (maximal effect) … ΔcTn I” value in series [3] (GHI-M (5 mL/kg, i.v.)) turned out to be 7.28. Besides, the “Emax (maximal effect) … Δα-HBDH” value in series [4] (GHI-H (10 mL/kg, i.v.)) is recorded as 86.524. Moreover, the “Emax (maximal effect) … Δα-HBDH” value in series [4] (GHI-L ([…], i.v.)) was found to be 48.745. Moreover, the “Emax (maximal effect) … Δα-HBDH” value in series [4] (GHI-M (5 mL/kg, i.v.)) is listed as 72.774. In series [5] (GHI-H (GHI 10 mL/kg, i.v.)), this compound came in with a CL1 of 42.57 ± 1.53 mL/min/kg, a CL2 of 173.38 ± 15.2 mL/min/kg, a K10 of 6.701 ± 1.078 h⁻¹ and a K12 of 27.459 ± 6.003 h⁻¹. Also, in series [5] (GHI-H (GHI 10 mL/kg, i.v.)), the K21 turned out to be 8.203 ± 0.823 h⁻¹, the Q worked out at 173.3 ± 15.2 mL/min/kg, the V1 is on record as 0.389 ± 0.059 L/kg and the V2 is on record as 1.273 ± 0.103 L/kg. This compound had a t1/2α in series [5] (GHI-H (GHI 10 mL/kg, i.v.)) of 1.08 ± 0.18 min. In series [5] (GHI-L (GHI […], i.v.)), this compound displayed a CL1 of 44.48 ± 2.82 mL/min/kg, a CL2 of 150 ± 15.1 mL/min/kg, a K10 of 4.274 ± 1.912 h⁻¹ and a K12 of 14.327 ± 4.021 h⁻¹. In series [5] (GHI-L (GHI […], i.v.)), this compound gave a K21 of 3.902 ± 0.294 h⁻¹, a Q of 149.8 ± 15.1 mL/min/kg, a V1 of 0.672 ± 0.201 L/kg and a V2 of 2.304 ± 0.146 L/kg. In series [5] (GHI-L (GHI […], i.v.)), this compound showed a t1/2α of 2.04 ± 0.54 min. Also, in series [5] (GHI-M (GHI 5 mL/kg, i.v.)), the CL1 is 32.32 ± 2.43 mL/min/kg, the CL2 came out at 120 ± 8.42 mL/min/kg, the K10 was determined as 3.987 ± 0.663 h⁻¹ and the K12 amounted to 14.709 ± 1.766 h⁻¹. For the same compound, in series [5] (GHI-M (GHI 5 mL/kg, i.v.)), the K21 was 4.84 ± 0.29 h⁻¹, the Q was determined as 119.8 ± 8.4 mL/min/kg, the V1 was 0.496 ± 0.08 L/kg and the V2 is 1.49 ± 0.142 L/kg. In series [5] (GHI-M (GHI 5 mL/kg, i.v.)), this compound came in with a t1/2α of 1.86 ± 0.18 min.
